Laboratory results reported in the NIST ThermoML archive (doi:10.1021/je800530u).

Conditions: Liquid, Closed cell (Static) method

NCCO [2-aminoethan-1-ol]
Conditions	vapor or sublimation pressure [kPa]
283.15 K	0.0158
283.34 K	0.016
288.34 K	0.02533
293.15 K	0.0382
293.34 K	0.03866
298.34 K	0.05866
303.15 K	0.0867
303.34 K	0.08799
308.34 K	0.1293
313.15 K	0.1855
313.34 K	0.188
318.34 K	0.2693
323.15 K	0.3762
323.34 K	0.3813
328.34 K	0.5333
333.15 K	0.7274
333.34 K	0.7359
338.34 K	1.007
343.15 K	1.347
343.34 K	1.363
348.34 K	1.827
353.15 K	2.4
353.34 K	2.425
358.34 K	3.193
363.09 K	4.113
363.15 K	4.126

CN1CCOCC1 [N-methylmorpholine]
Conditions	vapor or sublimation pressure [kPa]
273.18 K	0.6893
278.18 K	0.9533
283.18 K	1.3
288.18 K	1.748
293.18 K	2.322
298.18 K	3.049
303.18 K	3.96
308.18 K	5.09
313.15 K	6.471
313.18 K	6.479
318.18 K	8.174
323.15 K	10.21
323.18 K	10.22
328.18 K	12.68
333.15 K	15.58
333.18 K	15.6
338.18 K	19.06
343.15 K	23.1
343.18 K	23.13
348.18 K	27.88
353.08 K	33.27
353.15 K	33.35
363.15 K	47.02

O [water]
Conditions	vapor or sublimation pressure [kPa]
282.87 K	1.177
283.15 K	1.2
287.87 K	1.636
292.87 K	2.244
293.15 K	2.284
297.87 K	3.044
302.87 K	4.081
303.15 K	4.148
307.87 K	5.416
312.87 K	7.114
313.15 K	7.222
317.87 K	9.258
322.87 K	11.94
323.15 K	12.11
327.87 K	15.27
332.87 K	19.36
333.15 K	19.62
337.87 K	24.37
342.87 K	30.44
343.15 K	30.82
347.87 K	37.76
352.87 K	46.53
353.15 K	47.07
357.87 K	56.98
362.87 K	69.35
363.15 K	70.1
363.8 K	71.88
